Data published in patent publication US4753938A, “Condensed as-triazine derivatives” (Richter Gedeon Vegyeszeti Gyar Rt., priority 1983, dated 1988).

Assays:
[1] = system: reserpine ptosis on mice; experiment: Antagonism of reserpine ptosis on mice, p.o.; assay type: in vivo; settings: for ED50: Mus musculus, po, 1 h, 60 minutes after 6 mg./kg. reserpine s.c.
Method: (3) Antagonism of reserpine ptosis on mice, p.o. Animal groups consisting of 10 mice each are treated subcutaneously with 6 mg./kg. of reserpine. The test compound is administered orally after 60 minutes. The animals showing a ptosis are counted after 60 and 120 minutes. The evaluation is carried out as described in connection with the previous ptosis test No. 2.

[2] = system: tremorine-induced tremor in mice; experiment: Antitremorine effect on mice; assay type: in vivo
Method: (7) Antitremorine effect on mice 20 mg./kg. of tremorine are administered i.p. to mice whereupon after 45 minutes the induced characteristic tremor is registered. The test compounds are administered orally 1 hour before the addition of tremorine.

[3] = system: reserpine ptosis on rats; experiment: Antagonism of reserpine ptosis on rats, p.o.; assay type: in vivo; settings: Rattus norvegicus, po, 1 h, 60 minutes after 2.5 mg./kg. reserpine s.c.
Method: (4) Antagonism of reserpine ptosis on rats, p.o. […] The animals showing ptosis are counted until the effect decreases. The evaluation is carried out as described in connection with the previous ptosis test (test 2).

[4] = system: tetrabenazine ptosis on mice; experiment: Antagonism of tetrabenazine ptosis on mice, p.o.; assay type: in vivo; settings: for ED50: Mus musculus, po, 0.5 h, 50 mg./kg. tetrabenazine i.p. 30 minutes later
Method: (§1) (2) Antagonism of Tetrabenazine ptosis on mice and rats, p.o. […] The results are evaluated as follows: on the basis of all the measured data an average ptosis is calculated for each group and the deviation from the average of the control group is expressed in percents (inhibition). The ED50 values are calculated from the data thus obtained.

[5] = system: tetrabenazine ptosis on rats; experiment: Antagonism of tetrabenazine ptosis on rats, p.o.; assay type: in vivo; settings: Rattus norvegicus, po
Method: as §1

[6] = system: yohimbine toxicity on mice; experiment: Potentiation of yohimbine toxicity on mice (method of Quinton); assay type: in vivo; settings: for ED50: Mus musculus, ip, read-out: ED50, potentiation of yohimbine toxicity; for Ther. index, potentiation of yohimbine toxicity: mice
Method: (5) Potentiation of yohimbine toxicity on mice
The tests are carried out according to the method of Quinton. Animal groups consisting of 10 mice each are treated with the test compound. After an hour a sublethal dose of yohimbine is administered intraperitoneally at a rate of 20 ml./kg. The killed animals are counted after 1 and 24 hours, respectively.

[7] = system: aconitine-induced ECG changes in rats; experiment: Antiarrhythmial effect on rats (aconitine, modified method of Marmo et al.); assay type: in vivo; settings: aconitine 75 μg./kg. i.v.
Method: (6) Antiarrhythmial effect on rats
The test is carried out according to the modified method of Marmo et al. The test animals are narcotized with ethyl urethane (1.2 g./kg. i.p.). Aconitine is administered intravenously in the form of a bolus injection in a dose of 75 μg./kg. The changes of ECG are followed in standard II outlet 5 minutes after the administration of aconitine. The changes observed are evaluated with the aid of a scale from 0 to 5 points. The test compound is administered either intravenously 2 minutes before the addition of aconitine, or orally 1 hour before the aconitine administration.

[8] = Acute toxicity on mice, oral (LD50, Litchfield-Wilcoxon, 7 days observation); settings: mouse, in vivo
Method: (1) Acute toxicity on mice
The test is carried out on male and female white mice belonging to the CFLP strain and weighing 18-22 g. The test compound is administered orally and the animals are observed for a period of 7 days. In the groups for each dose half of the animals are male and the other half are female. The animals are kept in a plastic box (39×12×12 cm) on scrapings litter at room temperature. The mice receive standard fodder and tap water ad libitum. The toxicity data are determined by the method of Litchfield-Wilcoxon.
The test compounds are used in a suspension formed with 0.5% carboxymethyl cellulose.

In the case of `Clc1ccc(-c2ncn[n+]3ccc4ccccc4c23)cc1` [Reference compound D, 1-(4-chloro-phenyl)-as-triazino[6,1-a]isochinolinium-bromide, reference compound], the “Ther. index, reserpine ptosis” value [1] is reported as “below 5.0”, the ED50 [1] is reported as > 120 mg/kg and the “ED50, antitremorine effect” value ([2]; p.o. 1 hour before tremorine 20 mg./kg. i.p.) is reported as “inactive”. For the same molecule, the ED50 [3] was 60 mg/kg and the “Ther. index, tetrabenazine ptosis” value [4] was 188.
With `COC1(c2ccc(Cl)cc2)[N-]C=N[n+]2ccc3ccccc3c21` (stereo not drawn) [Compound B, 1-(4-chloro-phenyl)-1-methoxy-as-triazino[6,1-a]isoquinoline-5-ium-2-(1H)-ide] the “Ther. index, reserpine ptosis” value [1] was 280.0, the ED50 [1] was 1.5 mg/kg and the ED50 [5] was 0.6 mg/kg. The ED50 [6] was 1.2 mg/kg, the “Ther. index, potentiation of yohimbine toxicity” value (“Ther. index, potentiation” for short) [6] was 350 and the “Inhibition, antiarrhythmial effect” value ([7]; dose 1 mg./kg.) was 44.3%. For the same molecule, the ED50 ([2]; Mus musculus, po, p.o. 1 hour before tremorine 20 mg./kg. i.p.) was 40 mg/kg, the “Ther. index, antitremorine effect” value ([2]; p.o.) was 10.5 and the ED50 [3] was 34 mg/kg. The LD50 at 168 h [8] was 420 mg/kg, the “Ther. index, tetrabenazine ptosis” value [4] was 1680 and the ED50 [4] was 0.25 mg/kg.
For `CN(C)CCC=C1c2ccccc2CCc2ccccc21` [Amitriptyline, N,N-dimethyl-3-[dibenzo[a,d]-cycloheptadiene-5-ylidene]propylamine, reference compound], the “Ther. index, reserpine ptosis” value [1] was 3.45, the ED50 [1] was 65 mg/kg and the ED50 [6] was 12.5 mg/kg. The “Ther. index, potentiation” value [6] was 18 and the “Ther. index, tetrabenazine ptosis” value [4] was 19.
In the case of `O=c1nc(-c2ccc(Cl)cc2)c2c3ccccc3cc[n+]2[n-]1` [Compound C, 1-(4-chloro-phenyl)-as-triazino[6,1-a]isoquinoline-5-ium-2-(1H)-ide-3-one], the LD50 at 168 h ([8]; mice, p.o., 7 days observation) is reported as 2000 mg/kg, the “Ther. index, tetrabenazine ptosis” value [4] is reported as 87 and the ED50 [4] is reported as 23 mg/kg.
For `CCN(CC)CC(=O)Nc1c(C)cccc1C` [Lidocain, α-diethylamino-2,6-dimethyl-acetanilide, reference compound], the “Inhibition, antiarrhythmial effect” value ([7]; dose 4 mg./kg.) was 23.4%.
With `OC1(c2ccc(Cl)cc2)[N-]C=N[n+]2ccc3ccccc3c21` (stereo not drawn) [Compound A, 1-(4-chloro-phenyl)-1-hydroxy-as-triazino[6,1-a]isoquinoline-5-ium-2-(1H)-ide] the “Ther. index, reserpine ptosis” value [1] was 19.6, the ED50 [1] was 28 mg/kg and the ED50 [5] was 7 mg/kg. The ED50 [6] was 5 mg/kg, the “Ther. index, potentiation” value [6] was 110 and the “Inhibition, antiarrhythmial effect” value ([7]; dose 1 mg./kg.) was 39.6%. For the same molecule, the ED50 [3] was 28 mg/kg, the LD50 at 168 h [8] was 550 mg/kg and the “Ther. index, tetrabenazine ptosis” value [4] was 3667. It also gave an ED50 [4] of 0.15 mg/kg.
